According to US20090087871A1, “Method for Identifying PDE5-Modulators” (Atlanta Pharma AG, priority 2004, published 2009):
“Also recorded” adds a separate entry of the source.

How the values were obtained:
PDE5/CyaB1-chimera = test: adenylate cyclase activity of PDE5/CyaB1-chimera (conversion of [α-32P]-ATP to cAMP); type: biochemical, human; conditions: in the presence of cGMP; FIG. 6
Method: The adenylate cyclase activity of the PDE5/CyaB1-chimera is measured with and without the test substance. […] The incubation time should be between 1 and 120 min, the incubation temperature between 20 and 45° C., the Mg^2+-cofactor concentration between 1 and 20 mM (corresponding amounts of Mn^2+ may also be used as a cofactor) and the ATP concentration between 0.5 μM and 5 mM. An increase in the conversion with the substance compared to without the substance indicates a GAF-agonistic effect. If conversion is inhibited by adding the substance, this indicates a GAF-antagonistic effect of the substance. A GAF antagonism can also be measured via blockage of activation of PDE5/CyaB1-chimera by the native GAF ligand cGMP. In addition, the conversion at rising or fixed cGMP concentration is measured with and without the substance. If the conversion rates with the substance are below those without the substance, this indicates GAF antagonism of the substance. […]
The protein samples and the cocktail are measured in 1.5 mL reaction containers on ice, the reaction with ATP is started, and incubation is carried for 10 minutes at 37° C.
Each test mixture is carried in duplicate. […] With a test mixture without substance and cGMP, the basal enzyme activity is determined. […]
The inhibition or activation of the enzyme by the substance is calculated as % basal value according to the following formula: […]

PDE5 = PDE5 (Homo sapiens, UniProt O76074); conditions: cited from earlier work

Row | SMILES | PDE5-antagonistic effect via binding to the GAF domain of PDE5 (PDE5/CyaB1-chimera) | increase of the activity of PDE5 via cGMP binding to the GAF tandem (PDE5)
1 | CCCc1nn(C)c2c(=O)[nH]c(-c3cc(S(=O)(=O)N4CCN(C)CC4)ccc3OCC)nc12 [Sildenafil] | None of the measured PDE5 inhibitors shows a PDE5-antagonistic effect; also recorded: None of the measured PDE5 inhibitors showed a PDE5-antagonistic action | 
2 | Nc1nc2c(ncn2[C@@H]2O[C@@H]3COP(=O)(O)O[C@H]3[C@H]2O)c(=O)[nH]1 [cGMP] |  | tenfold
